From PMC8286840, “Identifying SARS-CoV-2 antiviral compounds by screening for small molecule inhibitors of Nsp3 papain-like protease” (Biochemical Journal, 2021)
Structures can show the parent of a compound that is named as a salt. Where two headings read alike, the source gives them in different places.

What was measured:
[1] = molecular target: T1, SARS-CoV-2 PLpro (nsp3 1564–1878) (Severe acute respiratory syndrome coronavirus 2, UniProt P0DTD1); assay: biochemical; design: FRET-quenched peptide (Pro3) cleavage by PLpro, 10 min pre-incubation, slope over 20 min, normalised to no-compound control; details: read-out: % of control remaining
[2] = molecular target: T1, SARS-CoV-2 PLpro (nsp3 1564–1878); assay: biochemical; design: FRET-quenched peptide (Pro3) cleavage by PLpro, 10 min pre-incubation, slope over 20 min, normalised to no-compound control; details: read-out: % of control remaining; remark: listed apart in the source

COc1ccc([C@@H]2CC(=O)c3c(O)cc(O[C@@H]4O[C@H](CO[C@@H]5O[C@@H](C)[C@H](O)[C@@H](O)[C@H]5O)[C@@H](O)[C@H](O)[C@H]4O)cc3O2)cc1OC [Methyl-Hesperidin]
remaining activity at 3.75 µM ([1]; Well no.=4864, high concentration screen): 99.3% | remaining activity at 1.25 µM ([2]; Well no.=4864, low concentration screen): 98.4%

CC[N+](C)(CC)CCOC(=O)C(O)(c1ccccc1)c1ccccc1 [Methylbenactyzium Bromide]
remaining activity at 3.75 µM ([1]; Well no.=7773, high concentration screen): 94.7% | remaining activity at 1.25 µM ([2]; Well no.=7773, low concentration screen): 101%

CNC(=O)OCC[N+](C)(C)C [Methylcarbamylcholine chloride]
remaining activity at 3.75 µM ([1]; Well no.=1135, high concentration screen): 96.5% | remaining activity at 1.25 µM ([2]; Well no.=1135, low concentration screen): 95.1%

C[C@](N)(Cc1ccc(O)c(O)c1)C(=O)O [Methyldopa]
remaining activity at 3.75 µM ([1]; Well no.=1955, high concentration screen): 92.5% | remaining activity at 1.25 µM ([2]; Well no.=1955, low concentration screen): 92.2%

CC[C@@H](CO)NC(=O)[C@@H]1C=C2c3cccc4[nH]cc(c34)C[C@H]2N(C)C1 [Methylergonovine maleate]
remaining activity at 3.75 µM ([1]; Well no.=1114, high concentration screen): 90.6% | remaining activity at 3.75 µM ([1]; Well no.=3250, high concentration screen): 98% | remaining activity at 1.25 µM ([2]; Well no.=1114, low concentration screen): 94.9% | remaining activity at 1.25 µM ([2]; Well no.=3250, low concentration screen): 98.4%

CC(C(=O)O)C(=O)O [Methylmalonate]
remaining activity at 3.75 µM [1]: 95.5% | remaining activity at 1.25 µM [2]: 100%

C[N@+]1(CC2CC2)CC[C@]23c4c5ccc(O)c4O[C@H]2C(=O)CC[C@@]3(O)[C@H]1C5 [Methylnaltrexone (Bromide)]
remaining activity at 3.75 µM ([1]; Well no.=8091, high concentration screen): 102% | remaining activity at 1.25 µM ([2]; Well no.=8091, low concentration screen): 97.4%

C[C@H]1C[C@@H]2[C@H]([C@@H](O)C[C@@]3(C)[C@H]2CC[C@]3(O)C(=O)CO)[C@@]2(C)C=CC(=O)C=C12 [Methylprednisolone]
remaining activity at 3.75 µM ([1]; Well no.=1957, high concentration screen): 99.7% | remaining activity at 3.75 µM ([1]; Well no.=6179, high concentration screen): 95.1% | remaining activity at 1.25 µM ([2]; Well no.=1957, low concentration screen): 100% | remaining activity at 1.25 µM ([2]; Well no.=6179, low concentration screen): 95.4%

Cc1cc(=O)[nH]c(=S)[nH]1 [Methylthiouracil]
remaining activity at 3.75 µM ([1]; Well no.=4973, high concentration screen): 98.5% | remaining activity at 3.75 µM ([1]; Well no.=6148, high concentration screen): 102% | remaining activity at 1.25 µM ([2]; Well no.=4973, low concentration screen): 99.9% | remaining activity at 1.25 µM ([2]; Well no.=6148, low concentration screen): 98.5%

CC[C@@H](CO)NC(=O)[C@@H]1C=C2c3cccc4c3c(cn4C)C[C@H]2N(C)C1 [Methysergide maleate]
remaining activity at 3.75 µM ([1]; Well no.=2284, high concentration screen): 90.3% | remaining activity at 1.25 µM ([2]; Well no.=1087, low concentration screen): 94.2% | remaining activity at 1.25 µM ([2]; Well no.=2284, low concentration screen): 94.8%

COC1=CC(=O)O[C@@H](/C=C/c2ccc3c(c2)OCO3)C1 [Methysticin]
remaining activity at 3.75 µM ([1]; Well no.=3565, high concentration screen): 108% | remaining activity at 1.25 µM ([2]; Well no.=3565, low concentration screen): 105%

CCN(CC)CCNC(=O)c1cc(Cl)c(N)cc1OC [Metoclopramide (hydrochloride hydrate)]
remaining activity at 3.75 µM ([1]; Well no.=7435, high concentration screen): 109% | remaining activity at 1.25 µM ([2]; Well no.=7435, low concentration screen): 106%

CCN(CC)CCNC(=O)c1cc(Cl)c(N)cc1OC [Metoclopramide hydrochloride]
remaining activity at 3.75 µM ([1]; Well no.=966, high concentration screen): 103% | remaining activity at 1.25 µM ([2]; Well no.=966, low concentration screen): 100%

CCN(CC)CCNC(=O)c1cc(Cl)c(N)cc1OC [Metoclopramide]
remaining activity at 3.75 µM ([1]; Well no.=1696, high concentration screen): 102% | remaining activity at 3.75 µM ([1]; Well no.=6425, high concentration screen): 95% | remaining activity at 1.25 µM ([2]; Well no.=1696, low concentration screen): 101% | remaining activity at 1.25 µM ([2]; Well no.=6425, low concentration screen): 99.2%

Cc1ccccc1N1C(=O)c2cc(S(N)(=O)=O)c(Cl)cc2NC1C (stereo not drawn) [Metolazone]
remaining activity at 3.75 µM ([1]; Well no.=943, high concentration screen): 95.6% | remaining activity at 3.75 µM ([1]; Well no.=8212, high concentration screen): 90.4% | remaining activity at 1.25 µM ([2]; Well no.=943, low concentration screen): 102% | remaining activity at 1.25 µM ([2]; Well no.=8212, low concentration screen): 94.6%

COCCc1ccc(OCC(O)CNC(C)C)cc1 (stereo not drawn) [Metoprolol (Succinate)]
remaining activity at 3.75 µM ([1]; Well no.=7475, high concentration screen): 95.9% | remaining activity at 1.25 µM ([2]; Well no.=7475, low concentration screen): 94.3%

COCCc1ccc(OCC(O)CNC(C)C)cc1 (stereo not drawn) [Metoprolol]
remaining activity at 3.75 µM ([1]; Well no.=1959, high concentration screen): 102% | remaining activity at 1.25 µM ([2]; Well no.=1959, low concentration screen): 102%

Cc1ccccc1/C=C/C1=NCCN1 [Metrazoline oxalate]
remaining activity at 3.75 µM ([1]; Well no.=1074, high concentration screen): 89.7% | remaining activity at 1.25 µM ([2]; Well no.=1074, low concentration screen): 88.9%

Cc1ccccc1CNc1ncnc2c1ncn2[C@@H]1O[C@H](CO)[C@@H](O)[C@H]1O [Metrifudil]
remaining activity at 3.75 µM ([1]; Well no.=851, high concentration screen): 96.8% | remaining activity at 1.25 µM ([2]; Well no.=851, low concentration screen): 95.7%

Cc1ncc([N+](=O)[O-])n1CCO [Metronidazole]
remaining activity at 3.75 µM ([1]; Well no.=1963, high concentration screen): 99.9% | remaining activity at 1.25 µM ([2]; Well no.=1963, low concentration screen): 99.6%

CC[C@H](C)C(=O)O[C@H]1CCC=C2C=C[C@H](C)[C@H](CC[C@@H]3C[C@@H](O)CC(=O)O3)[C@H]21 [Mevastatin]
remaining activity at 3.75 µM ([1]; Well no.=922, high concentration screen): 104% | remaining activity at 3.75 µM ([1]; Well no.=1618, high concentration screen): 103% | remaining activity at 3.75 µM ([1]; Well no.=3381, high concentration screen): 91.3% | remaining activity at 1.25 µM ([2]; Well no.=922, low concentration screen): 105% | remaining activity at 1.25 µM ([2]; Well no.=1618, low concentration screen): 102% | remaining activity at 1.25 µM ([2]; Well no.=3381, low concentration screen): 90.7%

Cc1cccc(C)c1OCC(C)N (stereo not drawn) [Mexiletene hydrochloride]
remaining activity at 3.75 µM ([1]; Well no.=1066, high concentration screen): 99.6% | remaining activity at 1.25 µM ([2]; Well no.=1066, low concentration screen): 102%

CC1(C)S[C@@H]2[C@H](NC(=O)[C@H](NC(=O)N3CCN(S(C)(=O)=O)C3=O)c3ccccc3)C(=O)N2[C@H]1C(=O)O [Mezlocillin (sodium)]
remaining activity at 3.75 µM ([1]; Well no.=7790, high concentration screen): 102% | remaining activity at 1.25 µM ([2]; Well no.=7790, low concentration screen): 99.7%

CN1CCN2c3ccccc3Cc3ccccc3C2C1 (stereo not drawn) [Mianserin (hydrochloride)]
remaining activity at 3.75 µM ([1]; Well no.=7477, high concentration screen): 96.9% | remaining activity at 1.25 µM ([2]; Well no.=7477, low concentration screen): 105%

CN1CCN2c3ccccc3Cc3ccccc3C2C1 (stereo not drawn) [Mianserin hydrochloride]
remaining activity at 3.75 µM ([1]; Well no.=874, high concentration screen): 106% | remaining activity at 1.25 µM ([2]; Well no.=874, low concentration screen): 107%

CN1CCN2c3ccccc3Cc3ccccc3C2C1 (stereo not drawn) [Mianserin.HCl]
remaining activity at 3.75 µM ([1]; Well no.=1540, high concentration screen): 101% | remaining activity at 1.25 µM ([2]; Well no.=1540, low concentration screen): 100%

COCC(=O)O[C@]1(CCN(C)CCCc2nc3ccccc3[nH]2)CCc2cc(F)ccc2[C@@H]1C(C)C [Mibefradil dihydrochloride]
remaining activity at 3.75 µM ([1]; Well no.=882, high concentration screen): 91.3% | remaining activity at 1.25 µM ([2]; Well no.=882, low concentration screen): 99.7%

Clc1ccc(COC(Cn2ccnc2)c2ccc(Cl)cc2Cl)c(Cl)c1 (stereo not drawn) [Miconazole nitrate]
remaining activity at 3.75 µM ([1]; Well no.=4666, high concentration screen): 103% | remaining activity at 1.25 µM ([2]; Well no.=4666, low concentration screen): 102%

Clc1ccc(COC(Cn2ccnc2)c2ccc(Cl)cc2Cl)c(Cl)c1 (stereo not drawn) [Miconazole]
remaining activity at 3.75 µM ([1]; Well no.=1965, high concentration screen): 92.2% | remaining activity at 1.25 µM ([2]; Well no.=1965, low concentration screen): 86.9%

CC#C[C@]1(O)CC[C@H]2[C@@H]3CCC4=CC(=O)CCC4=C3[C@@H](c3ccc(N(C)C)cc3)C[C@@]21C [Mifepristone]
remaining activity at 3.75 µM ([1]; Well no.=795, high concentration screen): 96.3% | remaining activity at 3.75 µM ([1]; Well no.=2206, high concentration screen): 97.2% | remaining activity at 3.75 µM ([1]; Well no.=6285, high concentration screen): 99.7% | remaining activity at 1.25 µM ([2]; Well no.=795, low concentration screen): 103% | remaining activity at 1.25 µM ([2]; Well no.=2206, low concentration screen): 93.5% | remaining activity at 1.25 µM ([2]; Well no.=6285, low concentration screen): 97.9%

OCCN1C[C@H](O)[C@@H](O)[C@H](O)[C@H]1CO [Miglitol]
remaining activity at 3.75 µM ([1]; Well no.=8340, high concentration screen): 92.7% | remaining activity at 1.25 µM ([2]; Well no.=8340, low concentration screen): 92.9%
